The numbers were not newly measured in patent publication US7309714B2, “Phenylalanine derivatives as dipeptidyl peptidase inhibitors for the treatment or prevention of diabetes” (Merck & Co., Inc., priority 2003, dated 2007), which cites them from elsewhere.

For one data set, the system named is cardiac allograft. To be noted: rats; survival doubled from day 7 to day 14.
The next data set deals with hematopoiesis. To be noted: mouse, cyclophosphamide-induced neutropenia.
For the next data set, the target named is T1, DP-IV (Homo sapiens, UniProt P27487).
T1 construct: GRF is rapidly degraded in plasma to GRF[3-44]; from tissue
T1 sequence (P27487 whole entry): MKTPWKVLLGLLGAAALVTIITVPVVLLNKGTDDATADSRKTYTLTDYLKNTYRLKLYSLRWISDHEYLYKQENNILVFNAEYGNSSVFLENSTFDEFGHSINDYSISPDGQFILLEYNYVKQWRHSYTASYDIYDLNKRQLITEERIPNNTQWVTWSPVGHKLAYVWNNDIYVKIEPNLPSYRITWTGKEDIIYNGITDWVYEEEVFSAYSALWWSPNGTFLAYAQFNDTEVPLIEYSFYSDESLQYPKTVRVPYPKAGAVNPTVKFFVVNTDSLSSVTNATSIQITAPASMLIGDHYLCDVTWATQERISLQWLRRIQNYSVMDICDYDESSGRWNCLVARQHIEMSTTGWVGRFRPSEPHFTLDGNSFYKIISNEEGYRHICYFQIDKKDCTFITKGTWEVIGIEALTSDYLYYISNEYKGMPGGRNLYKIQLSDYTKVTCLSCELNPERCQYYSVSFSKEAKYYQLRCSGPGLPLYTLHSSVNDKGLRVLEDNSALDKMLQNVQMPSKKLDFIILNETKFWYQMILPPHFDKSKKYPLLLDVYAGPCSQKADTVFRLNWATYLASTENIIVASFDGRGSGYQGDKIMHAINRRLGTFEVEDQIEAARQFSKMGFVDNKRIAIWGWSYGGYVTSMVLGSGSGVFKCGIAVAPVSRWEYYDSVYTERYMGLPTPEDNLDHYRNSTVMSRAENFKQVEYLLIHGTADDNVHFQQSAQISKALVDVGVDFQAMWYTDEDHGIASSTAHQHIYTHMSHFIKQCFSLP

Regarding `CC(C)N1CCC(c2ccccc2)(c2ccccc2)CC1` [Prodipine, Pro-Pro-diphenyl-phosphonate], the cardiac allograft survival in the data set with cardiac allograft is on record as 14 day.

Regarding `CC(C)[C@H](N)C(=O)N1CCC[C@H]1B(O)O` [Val-Boro-Pro], the effect on hematopoiesis result in the data set with hematopoiesis is given as “stimulated hematopoiesis”.

Turning to `CC[C@H](C)[C@H](N)C(=O)N1CCC[C@H]1C(=O)N[C@H](C(=O)O)[C@@H](C)CC` [diprotin A], the “effect on degradation of GRF to GRF[3-44] in plasma” value on DP-IV is “prevented”.
